Data: ChEMBL document CHEMBL3627608, “Crystal structures of human RIP2 kinase catalytic domain complexed with ATP-competitive inhibitors: Foundations for understanding inhibitor selectivity” (Bioorg Med Chem, 2015)

What was measured:
[1] = molecular target: T1, Tyrosine-protein kinase Tec (Homo sapiens) (UniProt P42680); assay: Inhibition of TEC (unknown origin) at 10 uM after 120 mins P33 radiolabeled kinase activity assay
T1 sequence (whole entry): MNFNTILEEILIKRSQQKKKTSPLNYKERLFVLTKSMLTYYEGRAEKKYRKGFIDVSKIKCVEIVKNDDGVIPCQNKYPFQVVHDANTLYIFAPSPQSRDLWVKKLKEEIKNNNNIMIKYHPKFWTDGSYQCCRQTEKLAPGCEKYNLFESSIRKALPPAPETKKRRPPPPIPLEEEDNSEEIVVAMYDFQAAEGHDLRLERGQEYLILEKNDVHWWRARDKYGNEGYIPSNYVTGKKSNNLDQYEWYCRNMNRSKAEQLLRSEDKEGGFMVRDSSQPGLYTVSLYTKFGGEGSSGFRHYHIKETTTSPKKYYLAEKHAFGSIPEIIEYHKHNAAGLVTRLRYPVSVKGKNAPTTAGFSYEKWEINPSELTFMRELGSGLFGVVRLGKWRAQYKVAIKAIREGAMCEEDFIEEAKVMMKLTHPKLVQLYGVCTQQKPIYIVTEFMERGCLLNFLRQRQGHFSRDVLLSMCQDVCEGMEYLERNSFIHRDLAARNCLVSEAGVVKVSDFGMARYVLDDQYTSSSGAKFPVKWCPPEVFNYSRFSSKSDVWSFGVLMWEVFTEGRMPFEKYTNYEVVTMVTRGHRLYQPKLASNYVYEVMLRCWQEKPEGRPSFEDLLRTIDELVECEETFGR

[2] = molecular target: T2, Serine/threonine-protein kinase BRSK2 (Homo sapiens) (UniProt Q8IWQ3); assay: Inhibition of BRSK2 (unknown origin) at 10 uM after 120 mins P33 radiolabeled kinase activity assay
T2 sequence (whole entry): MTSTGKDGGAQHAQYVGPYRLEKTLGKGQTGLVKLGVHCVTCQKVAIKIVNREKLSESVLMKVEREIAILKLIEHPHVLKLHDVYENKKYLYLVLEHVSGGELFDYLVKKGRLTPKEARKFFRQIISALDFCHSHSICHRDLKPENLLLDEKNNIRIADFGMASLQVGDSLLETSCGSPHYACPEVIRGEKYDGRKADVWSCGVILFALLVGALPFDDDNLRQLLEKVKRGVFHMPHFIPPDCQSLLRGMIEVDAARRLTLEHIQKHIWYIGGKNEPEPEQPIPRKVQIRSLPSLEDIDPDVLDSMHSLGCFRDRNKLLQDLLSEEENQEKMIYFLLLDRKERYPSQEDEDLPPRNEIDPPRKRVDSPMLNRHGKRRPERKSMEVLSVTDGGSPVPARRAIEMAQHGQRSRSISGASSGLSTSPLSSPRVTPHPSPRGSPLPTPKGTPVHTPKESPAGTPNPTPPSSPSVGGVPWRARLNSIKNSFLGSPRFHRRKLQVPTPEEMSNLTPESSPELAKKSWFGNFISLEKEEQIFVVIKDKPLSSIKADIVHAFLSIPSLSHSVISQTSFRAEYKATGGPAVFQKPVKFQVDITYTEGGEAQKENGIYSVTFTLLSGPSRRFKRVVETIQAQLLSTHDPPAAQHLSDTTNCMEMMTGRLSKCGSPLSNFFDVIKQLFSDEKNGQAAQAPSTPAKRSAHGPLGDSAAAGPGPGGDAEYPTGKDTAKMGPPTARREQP

[3] = molecular target: Leukocyte tyrosine kinase receptor (Homo sapiens) (UniProt P29376); assay: Inhibition of TYK1 (unknown origin) at 10 uM after 120 mins P33 radiolabeled kinase activity assay
[4] = molecular target: T3, Tyrosine-protein kinase ZAP-70 (Homo sapiens) (UniProt P43403); assay: Inhibition of ZAP70 (unknown origin) at 10 uM after 120 mins P33 radiolabeled kinase activity assay
T3 sequence (whole entry): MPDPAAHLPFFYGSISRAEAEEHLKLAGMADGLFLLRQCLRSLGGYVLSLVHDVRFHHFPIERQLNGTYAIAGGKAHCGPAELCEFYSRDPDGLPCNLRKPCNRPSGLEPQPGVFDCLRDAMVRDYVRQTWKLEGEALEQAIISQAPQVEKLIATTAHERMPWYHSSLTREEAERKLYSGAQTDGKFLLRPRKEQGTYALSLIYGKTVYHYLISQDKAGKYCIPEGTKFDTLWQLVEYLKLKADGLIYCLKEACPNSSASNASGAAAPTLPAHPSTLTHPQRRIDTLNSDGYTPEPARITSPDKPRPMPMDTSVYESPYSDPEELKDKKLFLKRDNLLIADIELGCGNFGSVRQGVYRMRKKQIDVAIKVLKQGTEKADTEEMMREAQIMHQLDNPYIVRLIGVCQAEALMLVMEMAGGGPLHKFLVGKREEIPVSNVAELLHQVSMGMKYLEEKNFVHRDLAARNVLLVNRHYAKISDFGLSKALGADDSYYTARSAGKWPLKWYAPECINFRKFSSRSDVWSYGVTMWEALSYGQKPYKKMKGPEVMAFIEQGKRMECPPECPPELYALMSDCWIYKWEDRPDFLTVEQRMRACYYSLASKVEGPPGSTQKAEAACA

[5] = molecular target: Casein kinase I isoform gamma-3 (Homo sapiens) (UniProt Q9Y6M4); assay: Inhibition of CK1gamma3 (unknown origin) at 10 uM after 120 mins P33 radiolabeled kinase activity assay
[6] = molecular target: T4, Aurora kinase C (Homo sapiens) (UniProt Q9UQB9); assay: Inhibition of Aurora C (unknown origin) at 10 uM after 120 mins P33 radiolabeled kinase activity assay
T4 sequence (whole entry): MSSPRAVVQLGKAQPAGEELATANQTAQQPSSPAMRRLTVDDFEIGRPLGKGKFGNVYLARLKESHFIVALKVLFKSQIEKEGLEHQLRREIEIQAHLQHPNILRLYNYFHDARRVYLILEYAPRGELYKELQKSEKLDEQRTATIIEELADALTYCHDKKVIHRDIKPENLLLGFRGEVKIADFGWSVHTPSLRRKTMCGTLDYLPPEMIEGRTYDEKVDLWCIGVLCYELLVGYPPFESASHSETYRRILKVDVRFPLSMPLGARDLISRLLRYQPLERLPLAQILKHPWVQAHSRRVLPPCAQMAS

[7] = molecular target: G protein-coupled receptor kinase 6 (Homo sapiens) (UniProt P43250); assay: Inhibition of GRK6 (unknown origin) at 10 uM after 120 mins P33 radiolabeled kinase activity assay
Chain of G protein-coupled receptor kinase 6 (Homo sapiens) (P43250 whole entry, looked up): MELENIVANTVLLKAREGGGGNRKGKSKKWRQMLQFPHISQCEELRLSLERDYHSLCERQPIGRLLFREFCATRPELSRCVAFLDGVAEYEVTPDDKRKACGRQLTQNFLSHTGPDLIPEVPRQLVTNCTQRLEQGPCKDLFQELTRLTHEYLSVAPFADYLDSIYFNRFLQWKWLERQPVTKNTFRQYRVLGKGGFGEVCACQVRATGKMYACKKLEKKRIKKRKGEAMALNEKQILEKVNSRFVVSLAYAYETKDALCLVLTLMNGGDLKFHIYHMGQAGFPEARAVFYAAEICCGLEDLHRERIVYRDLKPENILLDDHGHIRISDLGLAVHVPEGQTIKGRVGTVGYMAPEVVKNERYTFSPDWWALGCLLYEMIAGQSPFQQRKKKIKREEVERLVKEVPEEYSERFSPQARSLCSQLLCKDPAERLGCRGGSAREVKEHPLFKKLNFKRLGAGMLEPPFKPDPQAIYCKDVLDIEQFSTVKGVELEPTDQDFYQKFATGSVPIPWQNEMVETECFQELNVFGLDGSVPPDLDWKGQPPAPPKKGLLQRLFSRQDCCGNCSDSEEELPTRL

Chain of Casein kinase I isoform gamma-3 (Homo sapiens) (Q9Y6M4 whole entry, looked up, canonical isoform): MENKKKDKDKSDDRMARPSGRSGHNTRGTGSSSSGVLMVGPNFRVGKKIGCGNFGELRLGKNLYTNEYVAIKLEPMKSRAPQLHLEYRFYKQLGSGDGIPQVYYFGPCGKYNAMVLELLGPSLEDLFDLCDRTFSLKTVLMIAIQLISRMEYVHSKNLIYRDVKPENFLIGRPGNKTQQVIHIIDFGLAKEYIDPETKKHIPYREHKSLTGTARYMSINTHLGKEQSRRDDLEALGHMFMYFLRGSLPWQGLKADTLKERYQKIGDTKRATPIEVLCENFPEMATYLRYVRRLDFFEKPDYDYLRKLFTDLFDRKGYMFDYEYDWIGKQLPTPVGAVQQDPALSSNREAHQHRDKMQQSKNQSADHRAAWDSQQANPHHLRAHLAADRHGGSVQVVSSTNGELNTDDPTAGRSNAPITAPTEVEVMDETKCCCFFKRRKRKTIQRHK
Chain of Leukocyte tyrosine kinase receptor (Homo sapiens) (P29376 whole entry): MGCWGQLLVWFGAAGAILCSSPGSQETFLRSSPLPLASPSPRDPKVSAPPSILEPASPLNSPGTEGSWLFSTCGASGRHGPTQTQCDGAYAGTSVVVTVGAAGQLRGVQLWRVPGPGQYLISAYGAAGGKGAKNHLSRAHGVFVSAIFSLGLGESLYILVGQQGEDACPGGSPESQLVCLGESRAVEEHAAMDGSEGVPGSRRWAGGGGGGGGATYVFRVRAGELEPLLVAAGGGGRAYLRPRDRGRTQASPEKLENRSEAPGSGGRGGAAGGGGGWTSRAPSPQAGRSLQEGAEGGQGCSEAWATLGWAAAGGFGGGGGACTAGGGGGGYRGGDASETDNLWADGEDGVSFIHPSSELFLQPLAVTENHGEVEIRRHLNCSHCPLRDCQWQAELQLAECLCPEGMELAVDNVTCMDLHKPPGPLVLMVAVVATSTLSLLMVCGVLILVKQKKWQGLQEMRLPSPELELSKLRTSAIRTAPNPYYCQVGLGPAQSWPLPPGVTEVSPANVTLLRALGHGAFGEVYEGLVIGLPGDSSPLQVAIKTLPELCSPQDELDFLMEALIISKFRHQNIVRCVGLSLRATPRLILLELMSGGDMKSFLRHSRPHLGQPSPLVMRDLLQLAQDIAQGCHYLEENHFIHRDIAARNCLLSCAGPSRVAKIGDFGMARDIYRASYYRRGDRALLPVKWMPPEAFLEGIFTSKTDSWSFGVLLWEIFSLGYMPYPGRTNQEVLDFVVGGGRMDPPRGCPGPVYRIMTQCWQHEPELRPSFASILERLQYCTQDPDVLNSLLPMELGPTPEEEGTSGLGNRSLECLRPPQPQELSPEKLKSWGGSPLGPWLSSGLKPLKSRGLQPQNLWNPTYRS

Row | Structure (SMILES) | inhibition [1] | inhibition [2] | inhibition [3] | inhibition [4] | inhibition [5] | inhibition [6] | inhibition [7]
1 | COCCNC(=O)c1ccc2c(c1)nc(-c1cnc(-c3ccc(Cl)cc3)[nH]1)n2CCOC | 5.53% | 26.4% | 4.59% | 0.28% | 0.42% | 3.77% | -7.62%
2 | CS(=O)(=O)c1cccc(Nc2nccc(-c3sc(N4CCOCC4)nc3-c3cccc(NS(=O)(=O)c4c(F)cccc4F)c3)n2)c1 | 89.2% | 34% | 7.78% | -0.68% | 5.39% | 11% | -5.6%
3 | CC(C)(C)c1cc(NC(=O)Nc2ccc(Oc3ccncc3)cc2)no1 | 3.88% | 18.2% | 35.5% | -5.86% | 3.82% | 15.8% | -8.96%
